Test results from US10221163B2 (priority 2015, dated 2019).
Where two headings read alike, the source gives them in different places.

Assays:
[1] = tested on: Pseudomonas aeruginosa MB9798 vs MB9799; conditions: ratio MITC95 PA_9798/MITC95 PA_9799
Outline: (§1)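 Microbroth MIC tests in PAO1-background strains with fixed imipenem and/or ceftazidime, usually at the CLSI breakpoint, plus fixed class A/C β-lactamase inhibitor against AmpC. MBL inhibitor titrated; concentration restoring susceptibility recorded and compared as fold difference between efflux+ MB9798 and efflux− MB9799.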

IMP-1 = IMP-1 (Serratia marcescens, UniProt P52699); assay: biochemical; type: biochemical; conditions: CCF2-FA substrate, 2 pM enzyme, 2 hours at 25° C.
Outline: (§2)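 Two-hour, 25° C incubation of enzyme with inhibitor and CCF2-FA (7-hydroxycoumarin–cephalosporin–fluorescein). Fluorescence read-out; IC50 via 4-parameter fit.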

NDM-1 = NDM-1 (Klebsiella pneumoniae, UniProt C7C422); assay: biochemical; type: biochemical; conditions: CCF2-FA substrate, 1 pM enzyme, 2 hours at 25° C.
Outline: as §2

[2] = tested on: Pseudomonas aeruginosa efflux− (MB9799), IMP-1; type: cell-based; conditions: concentration restoring susceptibility to imipenem at 2 μg/mL in the presence of a class A, C, D serine β-lactamase inhibitor closely related to relebactam
Outline: as §1

VIM-1 = VIM-1 (Pseudomonas aeruginosa (strain ATCC 15692 / DSM 22644 / CIP 104116 / JCM 14847 / LMG 12228 / 1C / PRS 101 / PAO1), UniProt A0A0F7KYQ8); assay: biochemical; conditions: CCF2-FA substrate, 30 pM enzyme, 2 hours at 25° C.
Outline: as §2

[3] = tested on: Pseudomonas aeruginosa efflux+ (MB9798), IMP-1; type: cell-based; conditions: concentration restoring susceptibility to imipenem at 2 μg/mL in the presence of a class A, C, D serine β-lactamase inhibitor closely related to relebactam
Outline: as §1

[4] = tested on: Escherichia coli expressing NDM-1 (CLB30005, CLB30016); type: cell-based; conditions: with imipenem 1 μg/ml; 95% inhibition of bacterial growth
Outline: (§3)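 Imipenem 1 μg/ml + inhibitor; MBL-expressing clinical strains in 1.1×CAMHB, inoculum from saline suspension diluted 1:100; 35° C, 22–24 h; absorbance read-out.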

[5] = tested on: Klebsiella pneumoniae expressing VIM-1 (IHMA599644); type: cell-based; conditions: with imipenem 1 μg/ml; 95% inhibition of bacterial growth
Outline: as §3

[6] = tested on: Serratia marcescens expressing IMP-1 (CL5741); type: cell-based; conditions: with imipenem 1 μg/ml; 95% inhibition of bacterial growth
Outline: as §3

[7] = fluorescence assay, read-out: IMP-1 IC50
[8] = fluorescence assay, read-out: NDM-1 IC50
[9] = fluorescence assay, read-out: VIM-1 IC50

Sequence of IMP-1 (P52699 whole entry, looked up, species assumed): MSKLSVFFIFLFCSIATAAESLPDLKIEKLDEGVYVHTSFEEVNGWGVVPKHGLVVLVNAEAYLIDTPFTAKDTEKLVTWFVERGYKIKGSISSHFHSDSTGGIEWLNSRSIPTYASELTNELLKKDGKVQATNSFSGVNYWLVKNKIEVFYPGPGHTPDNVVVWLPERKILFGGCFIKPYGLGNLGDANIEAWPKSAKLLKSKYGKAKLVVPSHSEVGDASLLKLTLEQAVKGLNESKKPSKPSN
Sequence of NDM-1 (C7C422 whole entry, looked up, species assumed): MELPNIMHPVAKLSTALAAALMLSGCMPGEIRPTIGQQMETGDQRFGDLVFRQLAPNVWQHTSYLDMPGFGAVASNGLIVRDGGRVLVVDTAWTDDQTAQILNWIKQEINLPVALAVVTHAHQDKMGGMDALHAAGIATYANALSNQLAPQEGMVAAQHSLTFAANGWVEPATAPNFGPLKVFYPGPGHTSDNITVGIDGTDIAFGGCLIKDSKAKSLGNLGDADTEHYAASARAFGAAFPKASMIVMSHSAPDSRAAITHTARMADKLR

Row | Structure (SMILES) | Efflux ratio [1] | IC50 (IMP-1; [7]) [nM] | IC50 (NDM-1; [8]) [nM] | P. aeruginosa expressing IMP-1, efflux − (MB9799) MITC95 [2] [µM] | IC50 (VIM-1; [9]) [nM] | P. aeruginosa expressing IMP-1, efflux + (MB9798) MITC95 [3] [µM] | Escherichia coli expressing NDM-1 (CLB30016) MITC95 [4] [µM] | Klebsiella pneumoniae expressing VIM-1 (IHMA599644) MITC95 [5] [µM] | Serratia marcescens expressing IMP-1 (CL5741) MITC95 [6] [µM] | IC50 (VIM-1; VIM-1 IC50, fluorescence assay) [nM] | IC50 (IMP-1; IMP-1 IC50, fluorescence assay) [nM] | IC50 (NDM-1; NDM-1 IC50, fluorescence assay) [nM]
1 | Nc1nc2c(-c3ccc(S(=O)(=O)N[C@H]4CCNC4)c(S(N)(=O)=O)c3-c3nnn[nH]3)cccc2s1 [Example 60, 4-(2-amino-1,3-benzothiazol-4-yl)-N1-[(3S)-pyrrolidin-3-yl]-3-(1H-tetrazol-5-yl)benzene-1,2-disulfonamide] | 0.50 | 0.679 | 0.0765 | 1.563 | 0.236 | 0.7813 | 3.125 | 3.125 | 1.563 | – | – | –
2 | Nc1nc2c(-c3ccc(S(=O)(=O)N4CC[C@H](N)C4)c(S(N)(=O)=O)c3-c3nnn[nH]3)cccc2s1 [Example 61, 3-(2-amino-1,3-benzothiazol-4-yl)-6-{[(3S)-3-aminopyrrolidin-1-yl]sulfonyl}-2-(1H-tetrazol-5-yl)benzenesulfonamide] | 1.00 | 1.47 | 0.976 | 1.563 | – | 1.563 | 3.125 | 3.125 | 3.125 | 1.44 | – | –
3 | Nc1nc2c(-c3ccc(S(=O)(=O)N4CC[C@@H](N)C4)c(S(N)(=O)=O)c3-c3nnn[nH]3)cccc2s1 [Example 62, 3-(2-amino-1,3-benzothiazol-4-yl)-6-{[(3R)-3-aminopyrrolidin-1-yl]sulfonyl}-2-(1H-tetrazol-5-yl)benzenesulfonamide] | 1.00 | 1.28 | 0.843 | 1.563 | – | 1.563 | 3.125 | 3.125 | 1.563 | 1.63 | – | –
4 | Nc1nc2c(-c3ccc(S(=O)(=O)N[C@@H]4CCNC4)c(S(N)(=O)=O)c3-c3nnn[nH]3)cccc2s1 [Example 63, 4-(2-amino-1,3-benzothiazol-4-yl)-N1-[(3R)-pyrrolidin-3-yl]-3-(1H-tetrazol-5-yl)benzene-1,2-disulfonamide] | 0.50 | 0.307 | 0.0445 | 1.563 | 0.257 | 0.7813 | 1.563 | 1.563 | 1.563 | – | – | –
5 | CN(C1CCCNC1)S(=O)(=O)c1ccc(-c2cccc3sc(N)nc23)c(-c2nnn[nH]2)c1S(N)(=O)=O (stereo not drawn) [Example 64, 4-(2-amino-1,3-benzothiazol-4-yl)-N1-methyl-N1-piperidin-3-yl-3-(1H-tetrazol-5-yl)benzene-1,2-disulfonamide] | 2.00 | 2.16 | 1.49 | 1.563 | – | 3.125 | 12.5 | 12.5 | 1.563 | 5.69 | – | –
6 | CN([C@H]1CCNC1)S(=O)(=O)c1ccc(-c2cccc3sc(N)nc23)c(-c2nnn[nH]2)c1S(N)(=O)=O [Example 65, 4-(2-amino-1,3-benzothiazol-4-yl)-N1-methyl-N1-[(3S)-pyrrolidin-3-yl]-3-(1H-tetrazol-5-yl)benzene-1,2-disulfonamide] | 2.00 | 0.703 | 0.464 | 1.563 | 1.43 | 3.125 | 6.25 | 3.125 | 3.125 | – | – | –
7 | Nc1nc2c(-c3ccc(S(=O)(=O)N4CCC[C@H](N)C4)c(S(N)(=O)=O)c3-c3nnn[nH]3)cccc2s1 [Example 66, 3-(2-amino-1,3-benzothiazol-4-yl)-6-{[(3S)-3-aminopiperidin-1-yl]sulfonyl}-2-(1H-tetrazol-5-yl)benzenesulfonamide] | 2.00 | 2.26 | 1.09 | 1.563 | 4.01 | 3.125 | 3.125 | 6.25 | 3.125 | – | – | –
8 | Nc1nc2c(-c3ccc(S(=O)(=O)N[C@H]4CCCNC4)c(S(N)(=O)=O)c3-c3nnn[nH]3)cccc2s1 [Example 67, 4-(2-amino-1,3-benzothiazol-4-yl)-N1-[(3S)-piperidin-3-yl]-3-(1H-tetrazol-5-yl)benzene-1,2-disulfonamide] | 1.00 | 0.488 | 0.0407 | 1.563 | – | 1.563 | 1.563 | 3.125 | 1.563 | 0.271 | – | –
9 | Nc1nc2c(-c3ccc(S(=O)(=O)N4CCC[C@@H](N)C4)c(S(N)(=O)=O)c3-c3nnn[nH]3)cccc2s1 [Example 68, 3-(2-amino-1,3-benzothiazol-4-yl)-6-{[(3R)-3-aminopiperidin-1-yl]sulfonyl}-2-(1H-tetrazol-5-yl)benzenesulfonamide] | 2.00 | – | – | 1.563 | 3.7 | 3.125 | 3.125 | 3.125 | 1.563 | – | 1.97 | 1.01
10 | Nc1nc2c(-c3ccc(S(=O)(=O)N[C@@H]4CCCNC4)c(S(N)(=O)=O)c3-c3nnn[nH]3)cccc2s1 [Example 69, 4-(2-amino-1,3-benzothiazol-4-yl)-N1-[(3R)-piperidin-3-yl]-3-(1H-tetrazol-5-yl)benzene-1,2-disulfonamide] | 0.50 | 0.184 | 0.0323 | 1.563 | – | 0.7813 | 0.7813 | 3.125 | 1.563 | 0.185 | – | –
11 | NC[C@@H]1CCN(S(=O)(=O)c2ccc(-c3cccc4sc(N)nc34)c(-c3nnn[nH]3)c2S(N)(=O)=O)C1 [Example 70, 3-(2-amino-1,3-benzothiazol-4-yl)-6-{[(3S)-3-(aminomethyl)pyrrolidin-1-yl]sulfonyl}-2-(1H-tetrazol-5-yl)benzenesulfonamide] | 1.00 | 2.31 | 1.95 | 3.125 | – | 3.125 | 6.25 | 12.5 | 3.125 | 2.79 | – | –
